Measurements: patent publication US12433882B2, “Treatments for amyotrophic lateral sclerosis using dazucorilant” (Corcept Therapeutics Incorporated, priority 2022, dated 2025)

Columns and labels:
[1] = tested on: GR; assay: Dexamethasone-induced TAT activity in primary hepatocytes from monkeys; format: cell-based
Method: Dazucorilant is selective for GR over other nuclear hormone receptors, and a range of other receptors, enzymes, and ion channels. For example, dazucorilant has high selectivity for GR relative to the progesterone receptor (PR), androgen receptor, and estrogen receptor, showing no significant binding to these receptors at a concentration of 10 μM (0%, 1.5% and […], respectively).

[2] = target: T1, mineralocorticoid receptor (MR) (Homo sapiens, UniProt P08235); assay: MR reporter gene assay; format: cell-based
T1 sequence (P08235 1-984): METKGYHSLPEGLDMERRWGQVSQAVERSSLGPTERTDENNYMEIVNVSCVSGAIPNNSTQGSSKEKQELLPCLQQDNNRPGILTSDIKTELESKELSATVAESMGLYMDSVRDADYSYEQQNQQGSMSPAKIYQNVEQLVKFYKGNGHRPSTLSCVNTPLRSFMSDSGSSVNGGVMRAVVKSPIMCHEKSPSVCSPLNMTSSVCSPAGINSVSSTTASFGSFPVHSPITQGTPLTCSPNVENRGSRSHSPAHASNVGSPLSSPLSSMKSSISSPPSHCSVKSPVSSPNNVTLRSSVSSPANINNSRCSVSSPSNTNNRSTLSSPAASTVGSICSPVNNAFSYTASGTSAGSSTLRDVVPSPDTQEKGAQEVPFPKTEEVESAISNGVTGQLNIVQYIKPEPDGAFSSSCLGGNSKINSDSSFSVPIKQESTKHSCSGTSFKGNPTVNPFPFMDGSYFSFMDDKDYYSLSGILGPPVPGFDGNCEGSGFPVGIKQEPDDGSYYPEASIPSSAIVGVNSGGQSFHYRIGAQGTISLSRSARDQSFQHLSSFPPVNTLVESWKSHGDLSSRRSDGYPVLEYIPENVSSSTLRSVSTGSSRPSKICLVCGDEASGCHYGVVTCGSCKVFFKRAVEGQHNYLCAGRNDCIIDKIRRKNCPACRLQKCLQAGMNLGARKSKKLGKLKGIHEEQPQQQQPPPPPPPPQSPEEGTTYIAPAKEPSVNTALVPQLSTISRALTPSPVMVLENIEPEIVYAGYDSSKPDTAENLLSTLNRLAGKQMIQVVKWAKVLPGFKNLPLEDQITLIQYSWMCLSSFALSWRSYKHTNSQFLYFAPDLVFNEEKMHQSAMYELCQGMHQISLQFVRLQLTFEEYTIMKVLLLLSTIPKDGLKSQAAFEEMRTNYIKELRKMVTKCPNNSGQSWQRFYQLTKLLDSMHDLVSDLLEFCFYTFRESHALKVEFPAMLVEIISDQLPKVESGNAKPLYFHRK

O=C(c1ccccn1)[C@]12Cc3cnn(-c4ccc(F)cc4)c3C=C1CCN(S(=O)(=O)c1ccc(C(F)(F)F)cc1)C2 [dazucorilant, (R)-(1-(4-fluorophenyl)-6-((4-(trifluoromethyl)phenyl)sulfonyl)-4,4a, 5,6,7,8-hexahydro-1-H-pyrazolo[3,4-g]isoquinolin-4a-yl) (pyridin-2-yl)methanone]
dexamethasone-induced increase in TAT activity [1]: prevented the dexamethasone-induced increase in TAT activity
inhibition at 5 µM [2]: 23%
